Experimental data: patent publication US20230101747A1 (Schrödinger, Inc., priority 2019, published 2023)

These molecules were tested against T1, Full length human CDC7 protein co-expressed with DBF4 (Homo sapiens, UniProt O00311) (assay: CDC7 kinase biochemical assay (ADP-Glo, PDKtide substrate)). Settings: 0.1 nM CDC7/DBF4, 1 uM ATP, 10 uM PDKtide, 4 h; read-out: CDC7 ADP-Glo PDKtide IC50.
T1 construct: Full length human CDC7 protein co-expressed with DBF4; purchased SignalChem (China)
Description: CDC7 Kinase Biochemical Assay Protocol:
Full length human CDC7 protein co-expressed with DBF4 was purchased from SignalChem (China). CDC7 kinase activity was determined with PDKtide (SignalChem) as a substrate and by measuring ADP production using the ADP-Glo™ Kinase Assay kit (Promega) following the manufacturers instructions. The kinase reaction was performed using the following conditions: Buffer: 40 mM Tris pH 7.5, 20 mM MgCl2, 0.1 mg/ml BSA and 50 uM DTT. Final reaction mix contained 0.1 nM CDC7/DBF4, 1 uM ATP and 10 uM PDKtide. The kinase reaction time was 4 h. The ADP-Glo signal was measured using an EnVision plate reader (PerkinELmer).
Percent inhibition of CDC7 kinase activity was calculated based on the following formula: […]
SSample: the signal of compounds SHigh ctrl: the signal of high control (DMSO) SLow Ctrl: the signal of low control (positive control CDC7 inhibitor)

T1 sequence (O00311 whole entry): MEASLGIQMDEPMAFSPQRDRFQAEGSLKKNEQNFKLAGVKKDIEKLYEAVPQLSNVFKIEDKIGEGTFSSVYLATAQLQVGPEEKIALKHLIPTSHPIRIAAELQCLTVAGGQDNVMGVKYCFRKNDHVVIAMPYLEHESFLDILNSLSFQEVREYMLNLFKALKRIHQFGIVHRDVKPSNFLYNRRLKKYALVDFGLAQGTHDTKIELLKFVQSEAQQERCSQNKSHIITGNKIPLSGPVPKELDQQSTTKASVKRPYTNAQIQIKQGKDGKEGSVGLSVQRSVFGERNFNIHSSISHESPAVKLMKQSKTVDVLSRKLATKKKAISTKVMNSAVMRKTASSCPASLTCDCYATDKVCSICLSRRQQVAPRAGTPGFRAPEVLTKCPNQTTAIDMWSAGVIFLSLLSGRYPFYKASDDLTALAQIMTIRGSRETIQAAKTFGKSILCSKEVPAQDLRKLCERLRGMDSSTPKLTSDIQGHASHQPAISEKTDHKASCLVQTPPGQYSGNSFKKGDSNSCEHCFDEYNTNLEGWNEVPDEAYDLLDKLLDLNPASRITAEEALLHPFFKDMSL
T1 sequence (Q9UBU7 whole entry partner): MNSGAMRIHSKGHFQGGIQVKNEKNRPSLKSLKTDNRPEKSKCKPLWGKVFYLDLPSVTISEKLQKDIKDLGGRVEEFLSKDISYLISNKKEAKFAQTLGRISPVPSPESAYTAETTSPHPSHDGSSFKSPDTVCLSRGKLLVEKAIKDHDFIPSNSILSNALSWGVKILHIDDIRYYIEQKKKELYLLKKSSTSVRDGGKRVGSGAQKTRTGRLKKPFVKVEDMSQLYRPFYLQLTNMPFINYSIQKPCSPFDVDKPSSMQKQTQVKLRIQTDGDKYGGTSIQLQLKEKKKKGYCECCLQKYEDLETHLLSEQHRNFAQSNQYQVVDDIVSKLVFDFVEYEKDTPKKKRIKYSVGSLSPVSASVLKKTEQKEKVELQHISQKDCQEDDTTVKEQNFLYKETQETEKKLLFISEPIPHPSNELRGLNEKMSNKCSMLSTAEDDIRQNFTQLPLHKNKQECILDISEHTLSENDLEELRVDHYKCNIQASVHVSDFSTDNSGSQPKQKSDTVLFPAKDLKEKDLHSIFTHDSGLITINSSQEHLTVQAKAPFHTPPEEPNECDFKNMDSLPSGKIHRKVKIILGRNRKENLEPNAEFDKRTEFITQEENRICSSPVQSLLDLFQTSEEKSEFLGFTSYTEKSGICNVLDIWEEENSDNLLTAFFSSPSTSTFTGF

IC50 | SMILES
1 to 10 nM | O=C1NC[C@H](CN2CCC2)N2CCCc3c(-c4cn[nH]c4)sc1c32 [Compound 94, (R)-6-(azetidin-1-ylmethyl)-2-(1H-pyrazol-4-yl)-4,5,7,8-tetrahydro-3H-1-thia-5a,8-diazabenzo[cd]azulen-9(6H)-one]
1 to 10 nM | O=C1N[C@H](CN2CCOCC2)CN2CC(F)(F)Cc3c(-c4cn[nH]c4)sc1c32 [Compound 134, (R)-4,4-difluoro-7-(morpholinomethyl)-2-(1H-pyrazol-4-yl)-4,5,7,8-tetrahydro-3H-1-thia-5a,8-diazabenzo[cd]azulen-9(6H)-one]
< 1 nM | O=C1N[C@@H]([C@@H]2CCCCO2)CN2CC(F)(F)Cc3c(-c4cn[nH]c4)sc1c32 (single isomer, unassigned) [Compound 140]
1 to 10 nM | COC[C@@H]1[C@H](C2CCC2)NC(=O)c2sc(-c3cn[nH]c3)c3c2N1CCO3 (single isomer, unassigned) [Compound 99]
< 1 nM | O=C1N[C@@H]([C@@H]2CCCO2)CN2CC(F)(F)Cc3c(-c4cn[nH]c4)sc1c32 (single isomer, unassigned) [Compound 120]
1 to 10 nM | Cc1cnn(C[C@H]2CNC(=O)c3sc(-c4cn[nH]c4)c4c3N2CCC4)c1 [Compound 95, (R)-6-((4-methyl-1H-pyrazol-1-yl)methyl)-2-(1H-pyrazol-4-yl)-4,5,7,8-tetrahydro-3H-1-thia-5a,8-diazabenzo[cd]azulen-9(6H)-one]
1 to 10 nM | CCC(=O)C[C@@H]1CNC(=O)c2sc(-c3cn[nH]c3)c3c2N1CCC3 [Compound 90, (9R)-9-(2-oxobutyl)-3-(1H-pyrazol-4-yl)-2-thia-8,11-diazatricyclo[6.4.1.0^4,13]trideca-1(13),3-dien-12-one]
< 1 nM | CC(C)(O)C[C@@H]1CN2CC(F)(F)Oc3c(-c4cn[nH]c4)sc(c32)C(=O)N1 [Compound 117, (R)-4,4-difluoro-7-(2-hydroxy-2-methylpropyl)-2-(1H-pyrazol-4-yl)-4,5,7,8-tetrahydro-3-oxa-1-thia-5a,8-diazabenzo-[cd]azulen-9(6H)-one]
< 1 nM | O=C1NC(C2CC(F)(F)C2)CN2CCOc3c(-c4cn[nH]c4)sc1c32 (single isomer, unassigned) [Compound 112, (S or R)-7-(3,3-difluorocyclobutyl)-2-(1H-pyrazol-4-yl)-4,5,7,8-tetrahydro-3-oxa-1-thia-5a,8-diazabenzo[cd]azulen-9(6H)-one]
< 1 nM | O=C1NC(C2CC(F)(F)C2)CN2CC(F)Cc3c(-c4cn[nH]c4)sc1c32 (single isomer, unassigned) [Compound 130, 7-(3,3-difluorocyclobutyl)-4-fluoro-2-(1H-pyrazol-4-yl)-4,5,7,8-tetrahydro-3H-1-thia-5a,8-diazabenzo[cd]azulen-9(6H)-one]
< 1 nM | O=C1N[C@H](C2CCC2)CN2CCOc3c(-c4ccncc4)sc1c32 [Compound 106, (R)-7-cyclobutyl-2-(pyridin-4-yl)-4,5,7,8-tetrahydro-3-oxa-1-thia-5a,8-diazabenzo[cd]azulen-9(6H)-one]
< 1 nM | O=C1NC(C2CC(F)(F)C2)CN2CC(F)Cc3c(-c4cn[nH]c4)sc1c32 (single isomer, unassigned) [Compound 127, 7-(3,3-difluorocyclobutyl)-4-fluoro-2-(1H-pyrazol-4-yl)-4,5,7,8-tetrahydro-3H-1-thia-5a,8-diazabenzo[cd]azulen-9(6H)-one]
< 1 nM | CC1C(C2CCC2)NC(=O)c2sc(-c3cn[nH]c3)c3c2N1CCO3 (racemic) [Compound 96, 10-cyclobutyl-9-methyl-3-(1H-pyrazol-4-yl)-5-oxa-2-thia-8,11-diazatricyclo[6.4.1.0^4,13] trideca-1(13),3-dien-12-one]
< 1 nM | O=C1NC(C2CC(F)(F)C2)CN2CC(F)(F)Cc3c(-c4cn[nH]c4)sc1c32 (single isomer, unassigned) [Compound 113, (R or S)-7-(3,3-difluorocyclobutyl)-4,4-difluoro-2-(1H-pyrazol-4-yl)-4,5,7,8-tetrahydro-3H-1-thia-5a,8-diazabenzo[cd]azulen-9(6H)-one]
< 1 nM | CC(C)(O)C[C@@H]1CN2CC(F)(F)Cc3c(-c4cn[nH]c4)sc(c32)C(=O)N1 [Compound 131, (R)-4,4-difluoro-7-(2-hydroxy-2-methylpropyl)-2-(1H-pyrazol-4-yl)-4,5,7,8-tetrahydro-3H-1-thia-5a,8-diazabenzo[cd]azulen-9(6H)-one]

Further lines, the molecule ahead of its results:

SMILES | IC50
Cc1ccn(C[C@@H]2CNC(=O)c3sc(-c4cn[nH]c4)c4c3N2CCO4)n1 [Compound 61, (S)-6-((3-methyl-1H-pyrazol-1-yl)methyl)-2-(1H-pyrazol-4-yl)-4,5,7,8-tetrahydro-3-oxa-1-thia-5a,8-diazabenzo[cd]azulen-9(6H)-one] | < 1 nM
CC1(C)NC(=O)c2sc(-c3ccnc4ccoc34)c3c2N1CCO3 [Compound 7, 2-(furo[3,2-b]pyridin-7-yl)-6,6-dimethyl-4,5,6,7-tetrahydro-8H-3-oxa-1-thia-5a,7-diazaacenaphthylen-8-one] | > 10 nM
Cc1n[nH]cc1-c1sc2c3c1OCCN3C[C@H](C)NC2=O [Compound 17] | 1 to 10 nM
Cc1cnn(C[C@H]2COc3c(-c4cn[nH]c4)sc4c3N2CCNC4=O)c1 [Compound 45, (S)-5-((4-methyl-1H-pyrazol-1-yl)methyl)-2-(1H-pyrazol-4-yl)-4,5,7,8-tetrahydro-3-oxa-1-thia-5a,8-diazabenzo[cd]azulen-9(6H)-one] | 1 to 10 nM
COC[C@H]1CNC(=O)c2sc(-c3cn[nH]c3)c3c2N1CCC3 [Compound 88, (R)-6-(methoxymethyl)-2-(1H-pyrazol-4-yl)-4,5,7,8-tetrahydro-3H-1-thia-5a,8-diazabenzo[cd]azulen-9(6H)-one] | 1 to 10 nM
C[C@H]1CN2CCCc3c(-c4ccncc4)sc(c32)C(=O)N1 [Compound 31, (S)-7-methyl-2-(pyridin-4-yl)-4,5,7,8-tetrahydro-3H-1-thia-5a,8-diazabenzo[cd]azulen-9(6H)-one] | 1 to 10 nM
O=C1N[C@@H](CN2CCC2)CN2CCOc3c(-c4cn[nH]c4)sc1c32 [Compound 40, (S)-7-(azetidin-1-ylmethyl)-2-(1H-pyrazol-4-yl)-4,5,7,8-tetrahydro-3-oxa-1-thia-5a,8-diazabenzo[cd]azulen-9(6H)-one] | 1 to 10 nM
N#CC[C@@H]1CNC(=O)c2sc(-c3cn[nH]c3)c3c2N1CCO3 [Compound 59, (R)-2-(9-oxo-2-(1H-pyrazol-4-yl)-4,5,6,7,8,9-hexahydro-3-oxa-1-thia-5a,8-diazabenzo[cd]azulen-6-yl)acetonitrile] | < 1 nM
Cc1[nH]ncc1-c1sc2c3c1OCCN3C(C)(C)NC2=O [Compound 6, 6,6-dimethyl-2-(5-methyl-1H-pyrazol-4-yl)-4,5,6,7-tetrahydro-8H-3-oxa-1-thia-5a,7-diazaacenaphthylen-8-one] | 1 to 10 nM
C[C@H]1CNC(=O)c2sc(-c3ccncc3)c3c2N1CCO3 [Compound 24, (S)-6-methyl-2-(pyridin-4-yl)-4,5,7,8-tetrahydro-3-oxa-1-thia-5a,8-diazabenzo[cd]azulen-9(6H)-one] | 1 to 10 nM
Cn1ccc(C2CN3CCOc4c(-c5cn[nH]c5)sc(c43)C(=O)N2)n1 (stereo not drawn) [Compound 52] | 1 to 10 nM
O=C1NC[C@H](CO)N2CCCc3c(-c4cn[nH]c4)sc1c32 [Compound 87, (R)-6-(hydroxymethyl)-2-(1H-pyrazol-4-yl)-4,5,7,8-tetrahydro-3H-1-thia-5a,8-diazabenzo[cd]azulen-9(6H)-one] | < 1 nM
Cc1cnn(C[C@@H]2CNC(=O)c3sc(-c4cn[nH]c4)c4c3N2CCO4)c1 [Compound 63, (S)-6-((4-methyl-1H-pyrazol-1-yl)methyl)-2-(1H-pyrazol-4-yl)-4,5,7,8-tetrahydro-3-oxa-1-thia-5a,8-diazabenzo[cd]azulen-9(6H)-one] | 1 to 10 nM
CC1(C)NC(=O)c2sc(-c3ccnc4[nH]ccc34)c3c2N1CCO3 [Compound 14, 6,6-dimethyl-2-(1H-pyrrolo[2,3-b]pyridin-4-yl)-4,5,6,7-tetrahydro-8H-3-oxa-1-thia-5a,7-diazaacenaphthylen-8-one] | 1 to 10 nM
Cc1ccn(C[C@H]2CN3CCOc4c(-c5cn[nH]c5)sc(c43)C(=O)N2)n1 [Compound 43, (R)-7-((3-methyl-1H-pyrazol-1-yl)methyl)-2-(1H-pyrazol-4-yl)-4,5,7,8-tetrahydro-3-oxa-1-thia-5a,8-diazabenzo[cd]azulen-9(6H)-one] | < 1 nM
O=C1NC[C@@H](CO)N2CCOc3c(-c4cn[nH]c4)sc1c32 [Compound 34, (S)-6-(hydroxymethyl)-2-(1H-pyrazol-4-yl)-4,5,7,8-tetrahydro-3-oxa-1-thia-5a,8-diazabenzo[cd]azulen-9(6H)-one] | < 1 nM
CC1(C)NC(=O)c2sc(-c3ccncc3)c3c2N1CCCO3 [Compound 3, 5,5-Dimethyl-1-(pyridin-4-yl)-4,5,7,8-tetrahydro-3H,6H-9-oxa-2-thia-4,5a-diazabenzo[cd]azulen-3-one] | < 1 nM

Same assay, conditions: CDC7 ADP-Glo PDKtide IC50, 0.1 nM CDC7/DBF4, 1 uM ATP, 10 uM PDKtide, 4 h

IC50 | SMILES
> 10 nM | O=C1N[C@@H](C2CCC2)C(=O)N2CCOc3c(-c4cn[nH]c4)sc1c32 [Compound 23, (S)-7-cyclobutyl-2-(1H-pyrazol-4-yl)-4,5,7,8-tetrahydro-3-oxa-1-thia-5a,8-diazabenzo[cd] azulene-6,9-dione]
